Target: T1, Cytochrome c (Cyt c) from equine / horse heart (Equus caballus, UniProt P00004)
T1 construct: gene CYCS; mature heme-containing protein
Test: native ESI-MS, deconvoluted peak ratios
Type: binding
Details: aqueous solution, 0.5 uM Cyt c, 3-7 uM ligand, room temperature, 1 h; stepwise constant of the 1:1 complex
From the text: native ESI-MS, deconvoluted peak ratios on Cytochrome c (Cyt c) from equine / horse heart

T1 sequence (P00004 2-105): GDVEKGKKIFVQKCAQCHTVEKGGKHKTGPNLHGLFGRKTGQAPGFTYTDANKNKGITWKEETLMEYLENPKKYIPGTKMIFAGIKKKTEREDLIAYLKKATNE

Compound | Ka,1 (10^4 L mol^-1)
OC[C@H]1O[C@H](O[C@H]2[C@H](O)[C@@H](O)C(O)O[C@@H]2CO)[C@H](O)[C@@H](O)[C@@H]1O (stereo partly drawn) [Mal II, maltose] | 3.227 x 10^4 (RSD 2.9%)
OC[C@H]1O[C@H](O[C@H]2[C@H](O)[C@@H](O)[C@@H](O[C@H]3[C@H](O)[C@@H](O)C(O)O[C@@H]3CO)O[C@@H]2CO)[C@H](O)[C@@H](O)[C@@H]1O (stereo partly drawn) [Mal III, maltotriose] | 3.842 x 10^4 (RSD 2.5%)
OC[C@H]1O[C@H](O[C@H]2[C@H](O)[C@@H](O)[C@@H](O[C@H]3[C@H](O)[C@@H](O)[C@@H](O[C@H]4[C@H](O)[C@@H](O)C(O)O[C@@H]4CO)O[C@@H]3CO)O[C@@H]2CO)[C@H](O)[C@@H](O)[C@@H]1O (stereo partly drawn) [Mal IV, maltotetraose] | 3.279 x 10^4 (RSD 5.6%)
OC[C@H]1O[C@H](O[C@H]2[C@H](O)[C@@H](O)[C@@H](O[C@H]3[C@H](O)[C@@H](O)[C@@H](O[C@H]4[C@H](O)[C@@H](O)[C@@H](O[C@H]5[C@H](O)[C@@H](O)C(O)O[C@@H]5CO)O[C@@H]4CO)O[C@@H]3CO)O[C@@H]2CO)[C@H](O)[C@@H](O)[C@@H]1O (stereo partly drawn) [Mal V, maltopentaose] | 2.654 x 10^4 (RSD 0.80%)
OC[C@H]1O[C@H](O[C@H]2[C@H](O)[C@@H](O)[C@@H](O[C@H]3[C@H](O)[C@@H](O)[C@@H](O[C@H]4[C@H](O)[C@@H](O)[C@@H](O[C@H]5[C@H](O)[C@@H](O)[C@@H](O[C@H]6[C@H](O)[C@@H](O)C(O)O[C@@H]6CO)O[C@@H]5CO)O[C@@H]4CO)O[C@@H]3CO)O[C@@H]2CO)[C@H](O)[C@@H](O)[C@@H]1O (stereo partly drawn) [Mal VI, maltohexaose] | 2.438 x 10^4 (RSD 2.5%)
OC[C@H]1O[C@H](O[C@H]2[C@H](O)[C@@H](O)[C@@H](O[C@H]3[C@H](O)[C@@H](O)[C@@H](O[C@H]4[C@H](O)[C@@H](O)[C@@H](O[C@H]5[C@H](O)[C@@H](O)[C@@H](O[C@H]6[C@H](O)[C@@H](O)[C@@H](O[C@H]7[C@H](O)[C@@H](O)C(O)O[C@@H]7CO)O[C@@H]6CO)O[C@@H]5CO)O[C@@H]4CO)O[C@@H]3CO)O[C@@H]2CO)[C@H](O)[C@@H](O)[C@@H]1O (stereo partly drawn) [Mal VII, maltoheptaose] | 2.205 x 10^4 (RSD 1.6%)

— article PMC5803145, “Study on the Structural Effect of Maltoligosaccharides on Cytochrome c Complexes Stabilities by Native Mass Spectrometry” (Natural Products and Bioprospecting, 2018)
